Experimental data reported in patent publication US7244755B2, “Hydroxypropylamines” (Pharmacia & Upjohn Company, priority 2001, dated 2007).

melting point: 61 to 72 °C
SMILES: CCCN(CCC)C(=O)c1cc(C)cc(C(=O)N[C@@H](Cc2cc(F)cc(F)c2)[C@@H](O)CCN)c1 [Example 1, 5-amino-1,2,4,5-tetradeoxy-1-(3,5-difluorophenyl)-2-({3-[(dipropylamino)carbonyl]-5-methylbenzoyl}amino)-L-threo-pentitol]
